Values after ≈ are worked out from the molar mass of the structure shown. Read-outs that look alike come from different tables or passages of the source.
Tests used:
M. tuberculosis H37Rv = assay: microbe, parasite or virus in culture; assay type: cell-based; details: for MIC90 / MIC: Mycobacterium tuberculosis, H37RV, read-out: M. tuberculosis MIC90
in vitro = details: African green monkey, VERO cells CC50, 72 h exposure, ATP readout
M. bovis BCG cultures = assay type: cell-based, Mycobacterium bovis BCG
Vero cells = details: CC50 (Vero) / MIC90 (replicating M. tuberculosis H37Rv)
[1] = test system: M. tuberculosis H37Rv in infected mouse Bone Marrow-Derived Macrophages; assay type: cell-based, Mycobacterium tuberculosis; details: BMDM; for Reduction of the burden of intracellular bacteria: 32 × MIC
[2] = test system: non-replicating M. tuberculosis H37Rv; assay type: cell-based, Mycobacterium tuberculosis; details: MBC90 NR / MIC90 replicating
Mrx2 mutants = assay type: biochemical, M. tuberculosis; details: enzyme kinetic assay
[3] = test system: sigH and mrx2 expression in M. tuberculosis H37Rv; assay: sigH and mrx2 transcriptional levels by qRT-PCR upon compound exposure; assay type: cell-based, Mycobacterium tuberculosis; details: 1×, 2×, 4×, 8× MIC90; different time points
Mrx2WT = Mrx2WT (Mycobacterium tuberculosis, UniProt O53193); assay: Mrx2 enzyme kinetic assay; assay type: biochemical, M. tuberculosis; details: 10 μM compound, 30 μM enzyme, absorbance at 412 nm
Chain of Mrx2WT (O53193 whole entry): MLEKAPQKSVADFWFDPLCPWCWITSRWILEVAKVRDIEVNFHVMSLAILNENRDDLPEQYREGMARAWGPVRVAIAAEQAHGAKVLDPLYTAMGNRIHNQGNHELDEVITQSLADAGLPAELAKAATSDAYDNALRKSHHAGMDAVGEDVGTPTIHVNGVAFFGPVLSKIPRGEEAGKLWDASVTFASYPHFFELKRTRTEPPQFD

## COc1cc2ccc3oc([N+](=O)[O-])cc3c2cc1OC [nNF-C8, 7,8-Dimethoxy-2-nitronaphtho[2,1-b]furan]
M. tuberculosis H37Rv
  MIC90: 0.125 µg/mL (≈ 0.457 µM)
In vitro
  CC50: 0.4 µg/mL (≈ 1.46 µM)

## 1-Butyl-2-nitronaphtho[2,1-b]furan [nNF-C11]
M. tuberculosis H37Rv; REMA, H37Rv, median
  MIC90 R[…]. tuberculosis μM (median): 32.89 µM
  MIC90 R[…]. tuberculosis μg/ml (median): 8 µg/mL
M. tuberculosis H37Rv; REMA, H37Rv, range
  MIC90 R[…]. tuberculosis μg/ml (range): 8 to 16 µg/mL
M. tuberculosis H37Rv; value used for SI in Table 2
  M. tuberculosis MIC90: 8 µg/mL

## O=[N+]([O-])c1cn2c(n1)OC[C@@H](OCc1ccc(OC(F)(F)F)cc1)C2 [PA-824, Pretomanid, reference compound]
M. bovis BCG cultures
  NO release in treated M. bovis BCG cultures: significant NO release in a concentration dependent manner

## CCOC(=O)COc1ccc2ccc3oc([N+](=O)[O-])cc3c2c1 [nNF-C20, Ethyl 2-({2-nitronaphtho[2,1-b]furan-8-yl}oxy)acetate]
M. tuberculosis H37Rv
  MIC: 0.25 µg/mL (≈ 0.793 µM)
In vitro
  CC50: 9.3 µg/mL (≈ 29.5 µM)

## CCc1c([N+](=O)[O-])oc2ccc3ccccc3c12 [nNF-C17, 1-Ethyl-2-nitronaphtho[2,1-b]furan]
M. tuberculosis H37Rv
  MIC90: 2 µg/mL (≈ 8.29 µM)
In vitro
  CC50: 55.1 µg/mL (≈ 228 µM)

## CO[C@H]1/C=C/O[C@@]2(C)Oc3c(C)c(O)c4c(O)c(c(/C=N/N5CCN(C)CC5)c(O)c4c3C2=O)NC(=O)/C(C)=C\C=C\[C@H](C)[C@H](O)[C@@H](C)[C@@H](O)[C@@H](C)[C@H](OC(C)=O)[C@@H]1C [RIF, Rifampicin, reference compound]
M. tuberculosis H37Rv
  MIC: 0.01 µg/mL (≈ 0.0122 µM)
Vero cells
  Selectivity index (SI): 7824.1
[1]; 32 times its MIC
  Concentration needed to achieve a similar level (ca. 2 logs) of intracellular killing: 0.32 μg/ml
In vitro
  CC50: 78.2 µg/mL (≈ 95 µM)

## COc1ccc2c(ccc3oc([N+](=O)[O-])c(C)c32)c1 [nNF-C7, 7-Methoxy-1-methyl-2-nitronaphtho[2,1-b]furan]
M. tuberculosis H37Rv
  MIC90: 4 µg/mL (≈ 15.5 µM)
In vitro
  CC50: 67.5 µg/mL (≈ 262 µM)

## O=[N+]([O-])c1cc2c(ccc3c2ccc2cc([N+](=O)[O-])oc23)o1 [nNF-C1, 2,7-dinitronaphtho[1,2-b:6,5-b']difuran]
M. tuberculosis H37Rv
  MIC90: 0.125 µg/mL (≈ 0.419 µM)

## COc1ccc2ccc3oc([N+](=O)[O-])cc3c2c1Br [nNF-C18, 9-Bromo-8-methoxy-2-nitronaphtho[2,1-b]furan]
M. tuberculosis H37Rv
  MIC90: 0.25 µg/mL (≈ 0.776 µM)
In vitro
  CC50: 2.2 µg/mL (≈ 6.83 µM)

## COC(=O)c1ccc2c(ccc3oc([N+](=O)[O-])cc32)c1 [nNF-C4, Methyl 2-nitronaphtho[2,1-b]furan-7-carboxylate]
[2]
  Activity against non-replicating M. tuberculosis in the charcoal assay relative to MIC90 against replicating bacteria: 4–8 times
M. tuberculosis H37Rv
  MIC90: 0.125 µg/mL (≈ 0.461 µM)
M. bovis BCG cultures
  NO release in treated M. bovis BCG cultures: significant NO release in a concentration dependent manner
  Nitrite levels relative to nNF-C2: ~4 times
[1]; 2 times of MIC90 (0.25 μg/ml)
  Reduction of the number of intracellular M. tuberculosis bacteria: ca. 2 logs
[1]
  Reduction of the burden of intracellular bacteria: more than 4 logs

## Cc1c([N+](=O)[O-])oc2ccc3ccccc3c12 [nNF-C14, 1-Methyl-2-nitronaphtho[2,1-b]furan]
M. tuberculosis H37Rv
  MIC90: 2 µg/mL (≈ 8.8 µM)
Vero cells
  Selectivity index (SI): >50

## N#Cc1ccc2c(ccc3oc([N+](=O)[O-])cc32)c1 [nNF-C5, 2-Nitronaphtho[2,1-b]furan-7-carbonitrile]
M. tuberculosis H37Rv
  MIC90: 0.25 µg/mL (≈ 1.05 µM)
In vitro
  CC50: 12.5 µg/mL (≈ 52.5 µM)

## O=[N+]([O-])c1cc2c(ccc3cc(Br)ccc32)o1 [nNF-C6, 7-Bromo-2-nitronaphtho[2,1-b]furan]
M. tuberculosis H37Rv
  MIC90: 0.5 µg/mL (≈ 1.71 µM)
Vero cells
  Selectivity index (SI): 182.6

## O=[N+]([O-])c1cc2c(ccc3c4cc([N+](=O)[O-])oc4ccc23)o1 [nNF-C3, 2,7-Dinitronaphtho[2,1-b:6,5-b']difuran]
M. tuberculosis H37Rv
  MIC: 1 µg/mL (≈ 3.35 µM)

## COc1ccc2c(ccc3oc([N+](=O)[O-])cc32)c1 [nNF-C16, 7-Methoxy-2-nitronaphtho[2,1-b]furan]
M. tuberculosis H37Rv
  MIC90: 0.0625 µg/mL (≈ 0.257 µM)
In vitro
  CC50: 0.3 µg/mL (≈ 1.23 µM)

## CCCCc1c([N+](=O)[O-])oc2ccc3ccccc3c12 [nNF-C12, 1-Butyl-2-nitronaphtho[2,1-b]furan]
M. tuberculosis H37Rv
  MIC90: 4 µg/mL (≈ 14.9 µM)
In vitro
  CC50: 73.5 µg/mL (≈ 273 µM)

## O=[N+]([O-])c1cc2cc3ccc4oc([N+](=O)[O-])cc4c3cc2o1 [nNF-C2, 2,8-Dinitronaphtho[2,1-b:7,6-b']difuran]
[2]
  Activity against non-replicating M. tuberculosis in the charcoal assay relative to MIC90 against replicating bacteria: 4–8 times
Mrx2 mutants
  Activity of Mrx2T25R, Mrx2S46R, Mrx2Y91S, Mrx2H140D and Mrx2R198G against the compound: only residual activity
M. tuberculosis H37Rv
  MIC90: 0.0625 µg/mL (≈ 0.21 µM)
M. bovis BCG cultures
  NO release in treated M. bovis BCG cultures: significant NO release in a concentration dependent manner
[1]; 4 times of MIC90 (0.25 μg/ml)
  Reduction of the number of intracellular M. tuberculosis bacteria: ca. 2 logs
[1]
  Reduction of the burden of intracellular bacteria: more than 4 logs
[3]
  Induction of sigH and mrx2 expression: time and concentration-dependant induction of both genes
Mrx2WT
  Metabolism of the compound by Mrx2WT: completely metabolized

Source: PMC9841431 (Nucleic Acids Research, 2022)
